# Assay results as given in article PMC9694488, “Amyloid beta and its naturally occurring N-terminal variants are potent activators of human and mouse formyl peptide receptor 1” (The Journal of Biological Chemistry, 2022).
# How the values were obtained:
# [1] = system: hFPR1, hFPR2, hFPR3; test: Ca2+ imaging, human FPRs taken together; type: cell-based; conditions: transfected HEK293T
# [2] = system: hFPR1; conditions: compared with this study; ref Le et al. and Slowik et al. (35, 42); cited from earlier work
# [3] = system: mouse and human FPR1; set-up: method as in Tiffany et al.; conditions: ref Tiffany et al.; cited from earlier work
# [4] = system: mFpr3; test: Ca2+ imaging, HEK293T transiently transfected with mFpr3; type: cell-based, mouse; conditions: Aβ1-42 from P&E in C1 buffer; n = 3, N = 2
# [5] = CD spectroscopy (secondary structure); type: physicochemical; conditions: 30 μM in C1, sonicated 10 min, n = 3, N = 1
# Experimental: CD spectra were recorded (JASCO J-1500 spectrometer) in a 1 mm High Precision Cell (Hellma Analytics). Data were processed in Spectra Analysis by JASCO and were plotted by Origin.
# [6] = ThT aggregation assay; type: physicochemical
# Experimental: DMSO. ThT (Sigma-Aldrich) stock solutions were dissolved at 1 mM in the respective buffer, sterile filtered with […] pore membranes, and stored at −20 °C. […] Fluorescence measurements were carried out as 100 μl triplicates in black optical 384-well μCLEAR-plates (Greiner Bio-One) at 37 °C with excitation at 440 nm and emission at 484 nm in a FlexStation III microplate reader within 15 min after thawing of the peptides. Signals were measured in intervals of 60 s for 120 min and were shaken for 3 s before each read.
# [7] = system: hFPR2; test: Ca2+ imaging, HEK293T transiently transfected with hFPR2; type: cell-based, human
# Experimental: (§2) All peptides were thawed at room temperature approximately 1 h before each functional experiment, as this time was needed to prepare the compound plates for each measurement.
# (§3) HEK293T cells (ATCC) were cultured in Dulbecco’s Modified Eagle’s medium (DMEM, Biowest) supplemented with 10% (v/v) heat-inactivated fetal calf serum (FCS, Pan Biotech), 1 unit/ml penicillin-streptomycin (Biowest), and 2 mM L-glutamine (Biowest) until 80% confluence. For transfection, approximately 2000 cells were seeded in each well of poly-D-lysine–coated (PDL) (10 μg/ml in PBS, Sigma) black optical 96-well μCLEAR-plates (Greiner Bio-One). Cells were transfected after 24 h using jetPEI (Polyplus-transfection SA) with 0.125 μg of DNA plasmids encoding the respective receptors and equal amounts of a plasmid encoding the G protein subunit Gα16 since this subunit is needed to trigger FPR-dependent calcium signals in HEK293 cells ([50], [70]). The medium of transfected cells was changed 24 h after transfection. For mock transfections, the proportion of the FPR-containing plasmids were substituted by an empty pcDNA3.1 vector.
# (§4) Cell population responses of transfected HEK293T cells and U87 cells were recorded using a Flexstation III microplate reader (Molecular Devices). Briefly, cells were incubated with 2 μM Calbryte 520 AM (AAC Bioquest) for 2 h at room temperature in C1 assay buffer with 5 mM glucose (Carl Roth). Before each experiment, cells were rinsed three times with C1. Experiments with HEK293T cells were conducted 48 h after transfection, while experiments with U87 cells were performed 24 h after seeding. Acquisition of baseline fluorescence was performed for 25 s before ligand application, and cell population response was measured for 125 s after application.
# [8] = Transmission electron microscopy of aggregates; type: physicochemical; conditions: 30 μM, 24 h incubation
# From the text: Samples were then stained with 4% uranyl acetate. Subsequently, TEM images were acquired (JEOL 1400 Transmission Electron Microscope) and then processed in ImageJ.
# [9] = system: mFpr1; test: Ca2+ imaging, HEK293T transiently transfected with mFpr1; type: cell-based, mouse; conditions: for Ca2+ response, mFpr1: n = 3, N = 2
# [10] = system: rat microglia and astrocytes; conditions: cited from earlier work
# From the text: (§1) The activation of PRRs by Aβ has become a recent focus in AD research because they have a special ability to potently trigger the reactive state ([14], [25]). Among these PRRs, FPRs are one of the promising targets for AD research ([12]). They belong to a small gene family of G protein–coupled receptors with three members in humans and seven in mice ([26]). FPRs are primarily expressed in the innate and adaptive immune system, where they contribute to the detection and elimination of bacterial pathogens ([27], [28], [29], [30]). However, they are also expressed in a number of cell types in the ...
# [11] = system: primary murine glia and in vitro FPR expression systems; conditions: cited from earlier work
# From the text: as §1
# [12] = system: neutrophils and murine glial cells; conditions: cited from earlier work
# From the text: as §1
# [13] = system: human and murine FPR2; conditions: cell lines transfected with human and murine FPR2; cited from earlier work
# From the text: as §1
# [14] = system: mFpr2; test: Ca2+ imaging, HEK293T transiently transfected with mFpr2; type: cell-based, mouse
# Experimental: as §2, §3, §4
# [15] = system: hFPR3; test: Ca2+ imaging, HEK293T transiently transfected with hFPR3
# Experimental: as §2, §3, §4
# [16] = system: human and mouse FPRs; test: Ca2+ imaging, FPR-transfected HEK293T (several human and mouse FPRs taken together); type: cell-based
# Experimental: as §2, §3, §4
# [17] = system: hFPR1; test: Ca2+ imaging, HEK293T transiently transfected with hFPR1; type: cell-based, human
# [18] = system: monocytes and microglia; conditions: cited from earlier work
# From the text: Factors such as the secondary structure, 3D conformation, and aggregation therefore seem to be of high importance for the precise activation pattern, and different receptor subtypes seem to prefer different peptide structures or exposed surfaces. Multiple previous studies have already shown that different buffer systems and solvents can critically influence properties of Aβ such as its aggregation kinetics and the structure ...
# [19] = Aβ1-42 from Synpeptide, 10 μM, n = 3, N = 2
# [20] = Ca2+ imaging, transfected HEK293T + Gα16, Calbryte 520, C1 buffer pH 7.2, n = 3, N = 1
# [21] = different suppliers, buffers, storage, solvents
# [22] = HFIP-treated Aβ1-42 from Anaspec, 10 μM, n = 3, N = 2
# [23] = 5 μM Aβ1-42 from P&E dissolved in DMSO vs C1, n = 3, N = 2
# [24] = 5 μM Aβ1-42 from P&E, n = 3, N = 1
# [25] = Aβ1-42 from Sigma-Aldrich, 10 μM, n = 3, N = 2
substance,measurement,setting,value
"Aβ1-42: Amyloid beta peptide, human WT sequence; from Peptides&Elephants, Anaspec (untreated or HFIP-treated), Sigma-Aldrich, Synpeptide",response of hFPRs (in addition to hFPR2),[1],all other hFPRs also responded
same,hFPR1 response to Aβ1-42 in earlier studies,[2],far less pronounced
same,activation of mouse and human FPR1 in an earlier study,[3],failed to detect any activation of mouse and human FPR1
same,"Ca2+ response, mFpr3",[4],did not respond
same,β-turn proportion in comparison with the Anaspec peptides,[5]; Aβ1-42 from P&E,significantly elevated β-turn proportions
same,β-turn proportion in comparison with the Anaspec peptides,[5]; Aβ1-42 from Synpeptide,significantly elevated β-turn proportions
same,capability to form aggregates in HBSS,"[6]; Aβ1-42 from P&E, 22.5 μM, in HBSS, 37 °C",strong reduction in the capability to form aggregates
same,ThT fluorescence kinetics in the first 2 h,"[6]; Aβ1-42 from Sigma-Aldrich, 22.5 μM in C1, 37 °C",did not drastically change
same,ThT fluorescence kinetics in the first 2 h,"[6]; Aβ1-42 from Synpeptide, 22.5 μM in C1, 37 °C",did not drastically change
same,ThT fluorescence kinetics in the first 2 h,"[6]; HFIP-treated Aβ1-42 from Anaspec (aggregation control), 22.5 μM, C1 with 0.2% DMSO, 37 °C",showed the expected increase
same,ThT fluorescence kinetics in the first 2 h,"[6]; non-HFIP–treated Aβ1-42 from Anaspec, 22.5 μM in C1, 37 °C",showed a reduction of fluorescence
same,"Ca2+ response, hFPR2",[7]; [19],the responses of hFPR1 and hFPR2 were lost
same,"threshold for minimal detectable activation, hFPR2",[7]; [20],3 µM
same,TEM aggregate morphology,[8]; Aβ1-42 from P&E,somewhat similar amorphous morphology
same,TEM aggregate morphology,[8]; Aβ1-42 from Synpeptide,somewhat similar amorphous morphology
same,TEM aggregate morphology,[8]; HFIP-treated Aβ1-42 from Anaspec,somewhat similar amorphous morphology
same,TEM aggregate morphology,[8]; non-HFIP–treated Aβ1-42 from Anaspec,seemed to directly form long fibers
same,"Ca2+ response, mFpr1","[9]; Aβ1-42 from P&E in C1 buffer, compared with the other FPRs",even more sensitive and had a higher signal amplitude than any other receptor
same,"threshold for minimal detectable activation, mFpr1",[9]; [20],500 nM
same,"Ca2+ response, mFpr1","[9]; HFIP-treated Aβ1-42 from Anaspec, 10 μM","weakly activated hFPR3, mFpr1, and mFpr2"
same,"mFpr1 activation over all suppliers, buffers and solvents",[9]; [21],activated under almost all conditions
same,"Ca2+ response, mFpr1","[9]; non-HFIP–treated Aβ1-42 from Anaspec, 10 μM",potently activated mFpr1
same,cAMP and ERK phosphorylation in rat microglia and astrocytes,[10],induced a decrease of cAMP and an induction of ERK phosphorylation
same,intracellular uptake via FPRs,[11],FPRs mediate the intracellular uptake of Aβ1-42
same,FPR2-dependent pro-inflammatory effects,[12],"led to the induction of oxidative stress, the release of pro-inflammatory cytokines, and chemotaxis"
same,calcium mobilization and ERK signaling,[13],can induce calcium mobilization and ERK signaling
same,"threshold for minimal detectable activation, mFpr2",[14]; [20],3 µM
same,"Ca2+ response, mFpr2",[14]; [22],"weakly activated hFPR3, mFpr1, and mFpr2"
same,increase of hFPR3 response by DMSO,[15]; [23],32%
same,hFPR3 response in Tris–NaCl versus C1,[15]; [24],did not significantly alter the responses of hFPR3
same,"threshold for minimal detectable activation, hFPR3",[15]; [20],3 µM
same,"Ca2+ response, hFPR3",[15]; [22],"weakly activated hFPR3, mFpr1, and mFpr2"
same,"hFPR3 activation over all suppliers, buffers and solvents",[15]; [21],activated under almost all conditions
same,FPR responses in HBSS,"[16]; 5 μM Aβ1-42 from P&E dissolved in HBSS, n = 3, N = 1",complete loss of nearly all FPR responses
same,FPR responses in C1 compared with HBSS and Tris–NaCl,[16]; [24],most robust activation of human and mouse FPRs in C1
same,FPR response pattern after extended storage,"[16]; 10 μM Aβ1-42 (Synpeptide), stored in C1 at -20 °C for 6 months vs freshly dissolved, n = 1, N = 2",Alterations of FPR responses
same,Ca2+ response pattern of mouse and human FPRs,[16]; [25],elicited a similar response pattern as that of P&E
same,"Ca2+ response, mouse and human FPRs other than mFpr1","[16]; non-HFIP–treated Aβ1-42 from Anaspec, 10 μM, n = 3, N = 2",failed to activate any other mouse or human FPR
same,decrease of hFPR1 response by DMSO,[17]; [23],40%
same,"reduction of signal amplitude, hFPR1, in Tris–NaCl versus C1",[17]; [24],approximately 50%
same,"Ca2+ response, hFPR1","[17]; Aβ1-42 from P&E in C1 buffer, n = 3, N = 2, compared with the other FPRs",even more sensitive and had a higher signal amplitude than any other receptor
same,"Ca2+ response, hFPR1",[17]; [25],failed to activate hFPR1
same,"Ca2+ response, hFPR1",[17]; [19],the responses of hFPR1 and hFPR2 were lost
same,"threshold for minimal detectable activation, hFPR1","[17]; Ca2+ imaging, transfected HEK293T + Gα16, Calbryte 520, assay buffer C1 pH 7.2, peptide stock 30 μM in C1, n = 3, N = 1",3 µM
same,FPR-dependent signaling with progressing aggregation,[18],lost FPR-dependent signaling with progressing aggregation
